The text below walks through data of the NIST ThermoML archive (doi:10.1021/je100839v).

The conditions of this series: for Glass transition temperature: DTA; for vapor or sublimation pressure: Liquid, Closed cell (Static) method.

Numbers after ± are expanded uncertainties.

Take `CCCCn1cc[n+](C)c1.F[B-](F)(F)F` [1-butyl-3-methylimidazolium tetrafluoroborate]: the Glass transition temperature was -85.0 ± 3 °C.

In the case of `CCCCn1cc[n+](C)c1.N#C[S-]` [1-butyl-3-methylimidazolium thiocyanate], the Glass transition temperature is -89.0 ± 3 °C.

Regarding `CCCCn1cc[n+](C)c1.[I-]` [1-butyl-3-methylimidazolium iodide], the Glass transition temperature is -62.0 ± 3 °C.

With `CCOS(=O)(=O)[O-].CCn1cc[n+](C)c1` [1-ethyl-3-methylimidazolium ethyl sulfate], the Glass transition temperature was -86.0 ± 3 °C.

With `O` [water], the vapor or sublimation pressure (usually the pressure of vapour in equilibrium with the condensed phase) (313.85 K) is listed as 8.1 ± 3.1 kPa; the “vapor or sublimation pressure” value (318.65 K) was found to be 10.4 ± 3.2 kPa; the “vapor or sublimation pressure” value (323.45 K) is given as 13.2 ± 3.3 kPa; the “vapor or sublimation pressure” value (328.35 K) is listed as 16.5 ± 3.3 kPa; the “vapor or sublimation pressure” value (333.35 K) is on record as 20.1 ± 3.5 kPa; the “vapor or sublimation pressure” value (338.15 K) is listed as 24.9 ± 3.7 kPa. The “vapor or sublimation pressure” value (343.05 K) was determined as 30.6 ± 3.8 kPa.
